Read-outs that look alike come from different tables or passages of the source. Each block holds one molecule with its values, some of them ahead of it.
Legend:
advanced solid tumors = experiment: Anticancer activity by RECIST 1.1 in advanced solid tumor patients; type: in vivo, human
[1] = system: basal cell carcinoma (BCC); settings: oral 150 mg daily, cited from earlier work
[2] = Adverse events at least possibly related to vismodegib during daily dosing; type: in vivo, human
[3] = high permeability, low solubility; cited from earlier work
[4] = Unbound vismodegib plasma concentration; type: in vivo, human; settings: for unbound vismodegib concentrations: after daily dosing 150 mg, mean ± SD
clinical [5] = settings: human, in vivo, 150 mg, AUC0–24
clinical [6] = settings: human, in vivo, 150 mg, AUC0–168
[7] = cited from earlier work
[8] = 46 patients evaluable for response, 150 mg daily
[9] = all patients during daily dosing (both groups)

unbound vismodegib concentrations ([4]; fasting group): 79 ± 53 ng/mL
unbound vismodegib concentrations ([4]; fed group): 103 ± 49 ng/mL
Steady-state unbound drug concentrations as share of total concentrations ([4]; daily dosing, fasting and fed groups): less than 1%
AUC(0-t) (clinical [5]): 239 µg·h/mL
AUC(0-t) (clinical [6]): 417 µg·h/mL
SMILES: CS(=O)(=O)c1ccc(C(=O)Nc2ccc(Cl)c(-c3ccccn3)c2)c(Cl)c1 [vismodegib]
objective responses (RECIST 1.1) (advanced solid tumors; [8]): no objective responses
patients with stable disease (advanced solid tumors; [8]): Nine
range of duration of stable disease (advanced solid tumors; patients with stable disease, longest in a patient with BCC): 8 to 152 weeks
response rate ([1]; locally advanced BCC): 43%
response rate ([1]; metastatic BCC): 30%
Alopecia, All grades (%) ([2]; Fasting (n=31), 150 mg daily): 4 (13) n (%)
Anorexia, All grades (%) ([2]; Fasting (n=31), 150 mg daily): 9 (29) n (%)
Diarrhea, All grades (%) ([2]; Fasting (n=31), 150 mg daily): 4 (13) n (%)
Dizziness, All grades (%) ([2]; Fasting (n=31), 150 mg daily): 3 (10) n (%)
Dysgeusia, All grades (%) ([2]; Fasting (n=31), 150 mg daily): 8 (26) n (%)
Dyspnea, All grades (%) ([2]; Fasting (n=31), 150 mg daily): 3 (10) n (%)
Fatigue, All grades (%) ([2]; Fasting (n=31), 150 mg daily): 11 (35) n (%)
Fatigue, Grade 3 (%) ([2]; Fasting (n=31), 150 mg daily): 2 (6) n (%)
Hyperglycemia, All grades (%) ([2]; Fasting (n=31), 150 mg daily): 2 (6) n (%)
Hyperkalemia, All grades (%) ([2]; Fasting (n=31), 150 mg daily): 1 (3) n (%)
Hypophosphatemia, All grades (%) ([2]; Fasting (n=31), 150 mg daily): 3 (10) n (%)
Hypophosphatemia, Grade 3 (%) ([2]; Fasting (n=31), 150 mg daily): 1 (3) n (%)
Myalgia, All grades (%) ([2]; Fasting (n=31), 150 mg daily): 6 (19) n (%)
Nausea, All grades (%) ([2]; Fasting (n=31), 150 mg daily): 10 (32) n (%)
Vomiting, All grades (%) ([2]; Fasting (n=31), 150 mg daily): 4 (13) n (%)
Weight loss, All grades (%) ([2]; Fasting (n=31), 150 mg daily): 5 (16) n (%)
Alopecia, All grades (%) ([2]; Fed (n=30), 150 mg daily): 1 (3) n (%)
Anorexia, All grades (%) ([2]; Fed (n=30), 150 mg daily): 13 (43) n (%)
Diarrhea, All grades (%) ([2]; Fed (n=30), 150 mg daily): 3 (10) n (%)
Dizziness, All grades (%) ([2]; Fed (n=30), 150 mg daily): 2 (7) n (%)
Dysgeusia, All grades (%) ([2]; Fed (n=30), 150 mg daily): 13 (43) n (%)
Fatigue, All grades (%) ([2]; Fed (n=30), 150 mg daily): 11 (37) n (%)
Fatigue, Grade 3 (%) ([2]; Fed (n=30), 150 mg daily): 1 (3) n (%)
Hyperglycemia, All grades (%) ([2]; Fed (n=30), 150 mg daily): 1 (3) n (%)
Hyperkalemia, All grades (%) ([2]; Fed (n=30), 150 mg daily): 1 (3) n (%)
Hyperkalemia, Grade 3 (%) ([2]; Fed (n=30), 150 mg daily): 1 (3) n (%)
Myalgia, All grades (%) ([2]; Fed (n=30), 150 mg daily): 7 (23) n (%)
Nausea, All grades (%) ([2]; Fed (n=30), 150 mg daily): 9 (30) n (%)
Neutropenia, All grades (%) ([2]; Fed (n=30), 150 mg daily): 1 (3) n (%)
Neutropenia, Grade 3 (%) ([2]; Fed (n=30), 150 mg daily): 1 (3) n (%)
Vomiting, All grades (%) ([2]; Fed (n=30), 150 mg daily): 3 (10) n (%)
Weight loss, All grades (%) ([2]; Fed (n=30), 150 mg daily): 2 (7) n (%)
anorexia, any grade, frequency [2, 9]: 36%
dysgeusia, any grade, frequency [2, 9]: 34%
fatigue, Grade 3, frequency [2, 9]: 5%
fatigue, any grade, frequency [2, 9]: 36%
hyperkalemia, Grade 3, frequency [2, 9]: 2%
hypophosphatemia, Grade 3, frequency [2, 9]: 2%
nausea, any grade, frequency [2, 9]: 31%
neutropenia, Grade 3, frequency [2, 9]: 2%
Biopharmaceutics Classification System class [3]: 2

SMILES: CS(=O)(=O)CCNCc1ccc(-c2ccc3ncnc(Nc4ccc(OCc5cccc(F)c5)c(Cl)c4)c3c2)o1 [lapatinib]
increase in exposure (area-under-the-curve; AUC) with food [7]: 150%
